Assay results as given in US11578343B2, “CAS9 proteins including ligand-dependent inteins” (President and Fellows of Harvard College, priority 2014, dated 2023).

How the values were obtained:
Format in all cases: cell-based, human
HEK293-GFP stable cells = test: Effect of 4-HT on cellular toxicity (live cell population, TO-PRO-3 stain, flow cytometry); settings: 12 or 60 h of treatment with 1 μM 4-HT; untransfected or transfected HEK293 cells; FIG. 5
Protocol: FIG. 5. Effect of 4-HT on cellular toxicity. Untransfected HEK293-GFP stable cells, and cells transfected with intein-Cas9(5219) and sgRNA expression plasmids, were treated with or without 4-HT (1 μM). 12 h after transfection, the media was replaced with full serum media, with or without 4-HT (1 μM). Cells were thus exposed to 4-HT for 0, 12, or 60 h. The live cell population was determined by flow cytometry 60 h after transfection using TO-PRO-3 stain (Life Technologies). Error bars reflect the standard deviation of six technical replicates.
We assayed these Cas9:sgRNA combinations in human cells for their ability to modify the three on-target loci as well as 11 known off-target genomic sites (Table 3)^4,5,10,13. Cells were treated with or without 1 μM 4-HT during transfection, and after 12 h the media was replaced with fresh media lacking 4-HT. […] Genomic DNA was isolated 60 h post-transfection and analyzed by high-throughput DNA sequencing

genomic EGFP locus [1] = test: Genomic EGFP disruption in HEK293-GFP stable cells (loss of GFP by flow cytometry); settings: for Loss of GFP expression / nuclease activity, in words: with or without 1 μM 4-HT, FIG. 3c
Protocol: HEK293-GFP stable cells were transfected with the Cas9 expression plasmid, a gRNA (targeting Emerald GFP; Guilinger et al., Nature Biotechnology (2014)), and iRFP670 (transfection control), using Lipofectamine 2000. Twelve hours after transfection, media, either containing 4-HT (1 μM) or without 4-HT, was added.
Five days after transfection, cells were trypsinized and analyzed on a flow cytometer. Cells lacking GFP indicated genome modification. Cas9 variants that induced minimal genome modification in the absence of 4-HT but induce significant genome modification in the presence of 4-HT were deemed small-molecule-regulated variants in this Example.
Additionally, a time course was performed in which incubation with 4-HT was limited to 2, 4, 8, 12 or 24 hours, after which point the media was replaced.
We genetically inserted the 4-HT-dependent intein at each of fifteen positions in Cas9 (Cys80, Ala127, Thr146, Ser219, Thr333, Thr519, Cys574, Thr622, Ser701, Ala728, Thr995, Ser1006, Ser1154, Ser1159, and Ser1274), chosen to distribute the location of the intein across the structural domains of Cas9^23 (FIG. 3b and Example 1). Because intein splicing leaves behind a single Cys residue, the intein was inserted in place of one Cas9 amino acid in each of the 15 candidate constructs. In addition to replacing natural Cys amino acids, we also favored replacing Ala, Ser, or Thr residues to minimize the likelihood that the resulting Cys point mutation resulting from protein splicing would disrupt Cas9 activity. The 15 intein-Cas9 candidates were expressed in HEK293-GFP cells together with a sgRNA that targets the genomic EGFP locus in these cells. Twelve hours post-transfection, cells were treated with or without 1 μM 4-HT. Five days post-transfection, cells were analyzed on a flow cytometer for loss of GFP expression from Cas9-mediated EGFP cleavage and subsequent non-homologous end joining.
Modification of genomic GFP. HEK293-GFP stable cells (GenTarget), which constitutively express Emerald GFP, served as the reporter cell line. Cells were maintained in “full serum media”: Dulbecco's Modified Eagle's Media plus GlutaMax (Life Technologies) with 10% (vol/vol) FBS and penicillin/streptomycin (1×, Amresco). 5×10^4 cells were plated on 48-well collagen-coated Biocoat plates (Becton Dickinson). 16-18 h after plating, cells were transfected with Lipofectamine 2000 (Life Technologies) according to the manufacturer's protocol. Briefly, 1.5 μL of Lipofectamine 2000 was used to transfect 650 ng of total plasmid: 500 ng Cas9 expression plasmid, 125 ng sgRNA expression plasmid, and 25 ng near-infrared iRFP670 expressing plasmid (Addgene plasmid 45457)^26. 12 h after transfection, the media was replaced with full serum media, with or without 4-HT (1 μM, Sigma-Aldrich T176). The media was replaced again 3-4 days after transfection. Five days after transfection, cells were trypsinized and resuspended in full serum media and analyzed on a C6 flow cytometer (Accuri) with a 488-nm laser excitation and 520-nm filter with a 20-nm band pass. Transfections and flow cytometry measurements were performed in triplicate.

genomic EGFP locus [2] = test: as above; settings: FIG. 12
[3] = +4-HT 2 hrs, then media replaced, Table 2
[4] = +4-HT 4 hrs, then media replaced, Table 2
[5] = +4-HT 8 hrs, then media replaced, Table 2
[6] = +4-HT 12 hrs, then media replaced, Table 2
[7] = +4-HT 24 hrs, then media replaced, Table 2
[8] = +4-HT (1 μM, added 12 h after transfection), five days after transfection, Table 1
[9] = −4-HT, five days after transfection, Table 1

Row | Substance | Cellular toxicity (HEK293-GFP stable cells) | Cells without GFP (%) (genomic EGFP locus [1]; [3]) | Cells without GFP (%) (genomic EGFP locus [1]; [4]) | Cells without GFP (%) (genomic EGFP locus [1]; [5]) | Cells without GFP (%) (genomic EGFP locus [1]; [6]) | Cells without GFP (%) (genomic EGFP locus [1]; [7]) | Cells without GFP (%) (genomic EGFP locus [1]; [8]) | Loss of GFP expression / nuclease activity, in words (genomic EGFP locus [1]) | Cells without GFP (%) (genomic EGFP locus [1]; [9]) | Cells without GFP (%) (genomic EGFP locus [1]; −4-HT, time course, Table 2) | Ability of β-estradiol to trigger Cas9 activity (genomic EGFP disruption) (genomic EGFP locus [2])
1 | 4-hydroxytamoxifen [4-HT] | no cellular toxicity |  |  |  |  |  |  |  |  |  | 
2 | intein(Ala127)-Cas9: Cas9 with 37R3-2 intein replacing Ala127 (SEQ ID NO: 28) |  | 18.95 | 18.57 | 18.64 | 18.35 | 16.83 | 19.73 | 4-HT-dependent loss of GFP expression | 7.97 | 5.03 | 
3 | intein(Ala728)-Cas9: Cas9 with 37R3-2 intein replacing Ala728 (SEQ ID NO: 36) |  |  |  |  |  |  | 41.89 | high DNA modification rates both in the presence and absence of 4-HT | 20.82 |  | 
4 | intein(Cys80)-Cas9: Cas9 with 37R3-2 intein replacing Cys80 (SEQ ID NO: 27) |  |  |  |  |  |  | 4.96 | lack of nuclease activity | 7.08 |  | 
5 | intein(Ser701)-Cas9: Cas9 with 37R3-2 intein replacing Ser701 (SEQ ID NO: 35) |  |  |  |  |  |  | 9.56 | lack of nuclease activity | 6.54 |  | 
6 | intein(Ser1006)-Cas9: Cas9 with 37R3-2 intein replacing Ser1006 (SEQ ID NO: 38) |  |  |  |  |  |  | 12.61 | 4-HT-dependent loss of GFP expression | 6.80 |  | 
7 | intein(Ser1154)-Cas9: Cas9 with 37R3-2 intein replacing Ser1154 (SEQ ID NO: 39) |  |  |  |  |  |  | 41.94 | high DNA modification rates both in the presence and absence of 4-HT | 21.14 |  | 
8 | intein(Ser1159)-Cas9: Cas9 with 37R3-2 intein replacing Ser1159 (SEQ ID NO: 40) |  |  |  |  |  |  | 13.21 | 4-HT-dependent loss of GFP expression | 5.65 |  | 
9 | intein(Ser1274)-Cas9: Cas9 with 37R3-2 intein replacing Ser1274 (SEQ ID NO: 41) |  |  |  |  |  |  | 5.00 | lack of nuclease activity | 3.08 |  | 
10 | intein(Thr146)-Cas9: Cas9 with 37R3-2 intein replacing Thr146 (SEQ ID NO: 29) |  | 16.29 | 15.07 | 13.65 | 14.44 | 19.57 | 21.60 | 4-HT-dependent loss of GFP expression | 8.77 | 4.28 | 
11 | intein(Thr333)-Cas9: Cas9 with 37R3-2 intein replacing Thr333 (SEQ ID NO: 31) |  |  |  |  |  |  | 9.17 | 4-HT-dependent loss of GFP expression | 4.96 |  | 
12 | intein(Thr519)-Cas9: Cas9 with 37R3-2 intein replacing Thr519 (SEQ ID NO: 32) |  | 14.55 | 13.98 | 14.74 | 13.93 | 18.04 | 25.96 | 4-HT-dependent loss of GFP expression | 9.49 | 4.29 | 
13 | intein(Thr622)-Cas9: Cas9 with 37R3-2 intein replacing Thr622 (SEQ ID NO: 34) |  |  |  |  |  |  | 3.96 | lack of nuclease activity | 5.67 |  | 
14 | intein(Thr995)-Cas9: Cas9 with 37R3-2 intein replacing Thr995 (SEQ ID NO: 37) |  |  |  |  |  |  | 21.39 | high DNA modification rates both in the presence and absence of 4-HT | 14.95 |  | 
15 | intein-Cas9(5219-G521R): intein-Cas9(S219) with point mutation G521R in the estrogen receptor ligand-binding domain (probably SEQ ID NO: 166) |  |  |  |  |  |  |  |  |  |  | eliminates the ability of β-estradiol to trigger Cas9 activity
